# Data published in patent US20260132127A1, “NOVEL SPIRO COMPOUND” (MITSUBISHI TANABE PHARMA CORPORATION, priority 2021, published 2026).
# Biological target: T1, human TRH-DE (Homo sapiens, UniProt Q9UKU6)
# T1 construct: expressed in transfected cells; host or cells: Expi 293 cells (transient expression), membrane fraction
# T1 sequence (Q9UKU6 1-1069): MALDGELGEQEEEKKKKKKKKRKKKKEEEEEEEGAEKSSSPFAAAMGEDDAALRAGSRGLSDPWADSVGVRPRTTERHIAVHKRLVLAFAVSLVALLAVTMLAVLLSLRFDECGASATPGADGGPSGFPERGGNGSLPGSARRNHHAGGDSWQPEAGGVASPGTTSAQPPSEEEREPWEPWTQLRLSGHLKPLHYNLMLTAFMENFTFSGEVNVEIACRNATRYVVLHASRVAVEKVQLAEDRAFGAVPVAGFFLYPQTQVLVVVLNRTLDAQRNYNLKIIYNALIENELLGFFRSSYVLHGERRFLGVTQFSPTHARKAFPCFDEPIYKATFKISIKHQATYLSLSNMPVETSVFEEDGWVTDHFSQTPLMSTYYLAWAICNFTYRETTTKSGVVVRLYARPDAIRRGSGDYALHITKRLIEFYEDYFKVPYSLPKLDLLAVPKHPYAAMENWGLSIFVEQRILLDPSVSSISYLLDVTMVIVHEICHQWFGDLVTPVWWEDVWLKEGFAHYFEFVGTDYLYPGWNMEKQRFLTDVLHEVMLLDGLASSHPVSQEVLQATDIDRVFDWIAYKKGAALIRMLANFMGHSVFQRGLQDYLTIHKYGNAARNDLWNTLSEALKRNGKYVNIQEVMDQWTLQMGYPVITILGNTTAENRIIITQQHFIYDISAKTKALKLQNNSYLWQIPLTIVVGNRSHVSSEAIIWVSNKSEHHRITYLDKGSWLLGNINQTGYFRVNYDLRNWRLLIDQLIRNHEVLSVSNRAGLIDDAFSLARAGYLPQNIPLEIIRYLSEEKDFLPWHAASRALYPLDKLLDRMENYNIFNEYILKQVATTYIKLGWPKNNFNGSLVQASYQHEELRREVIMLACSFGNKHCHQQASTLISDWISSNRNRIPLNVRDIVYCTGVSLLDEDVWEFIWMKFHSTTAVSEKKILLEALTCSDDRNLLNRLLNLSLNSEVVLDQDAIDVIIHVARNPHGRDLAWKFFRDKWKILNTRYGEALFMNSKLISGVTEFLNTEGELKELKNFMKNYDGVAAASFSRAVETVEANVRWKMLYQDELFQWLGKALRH
# Assay: TRH-DE inhibition test (RapidFire MS measurement of product Cyclo (His-Pro))
# Assay type: biochemical
# Conditions: membrane fraction of Expi 293 cells expressing human TRH-DE; 10 μM TRH substrate; room temperature, 2 hours; 16-point concentration test
# Procedure: The compounds described in “1. […] The enzyme inhibitory activity of each of the compounds was evaluated by measuring the amount of the product Cyclo (His-Pro) of the enzyme reaction using a RapidFire RF 365 HTMS system (manufactured by Agilent Technologies, Inc.) connected to a triple quadrupole mass spectrometer (API 4000, manufactured by SCIEX). A membrane fraction prepared from Expi 293 cells transiently expressing human TRH-DE was used as an enzyme. The membrane fraction was suspended in 4 μg/ml of a reaction buffer (50 mM sodium phosphate (pH 7.4), 25 mM NaCl, 0.01% Triton […], and 200 μM bacitracin) and mixed with the test compound at each concentration. 10 μM […]), which was a substrate, was added, and the mixture was reacted at room temperature for 2 hours. The reaction was stopped in the same amount of a solution of acetonitrile:methanol (1:1) containing 1 μM of the stable isotope Cyclo ([…]) as an internal standard, and the supernatant was collected after centrifugation. In the RapidFire RF 365 HTMS system, a portion of the supernatant was aspirated, loaded onto a Graphic Carbon column (manufactured by Agilent Technologies, Inc.) with a buffer A (water, 0.09% formic acid, 0.01% trifluoroacetic acid) and washed with ultrapure water. Next, washing was performed with acetonitrile. The contents in the column were eluted with a buffer B (80% acetonitrile, 0.09% formic acid, 0.01% trifluoroacetic acid) and injected into a mass spectrometer for analysis. […] The ESI voltage was set to 5,500 V and the temperature was set to 650° C. For the calculation of the inhibition rate, a Ratio value corrected by dividing the product amount by the internal standard amount was used. The inhibition rate (%) was calculated by % Inhibition={1-(Ratio value of sample-Ratio value of blank)/(Ratio value of control-Ratio value of blank)}×100. The IC50 value was calculated from the concentration reactivity test at 16 points.
row,Structure (SMILES),IC50
1,"CC1(O)c2cc(C(F)(F)F)cnc2C(=O)N1C1CC2(C1)CN(S(=O)(=O)c1ccccc1F)C2 (centres unmarked) [Example 275, 6-[2-(2-fluorophenyl)sulfonyl-2-azaspiro[3.3]heptan-6-yl]-5-hydroxy-5-methyl-3-(trifluoromethyl)pyrrolo[3,4-b]pyridin-7-one]",42 nM
2,CC1CCc2sc(C(F)(F)F)nc2C(=O)N1C1CC2(C1)CN(S(=O)(=O)c1ccccc1F)C2 (racemic) [Example 98],21 nM
3,C[C@@H]1COc2nc(N3C[C@H]4C[C@@H]3CO4)ncc2C(=O)N1C1CC2(C1)CN(S(=O)(=O)c1ccccc1F)C2 [Example 396],5 nM
4,Cc1nnc2n1C[C@@H](C)N(C1CC3(C1)CN(S(=O)(=O)c1ccccc1F)C3)C2=O [Example 264],459 nM
5,"CC1COc2cccnc2C(=O)N1C1CC2(C1)CN(S(=O)(=O)c1ccccc1F)C2 (single isomer, unassigned) [Example 349]",507 nM
6,C[C@@H]1CCn2nc(C3(C(F)(F)F)CC3)cc2C(=O)N1C1CC2(C1)CN(S(=O)(=O)c1ccccc1F)C2 [Example 192],9 nM
7,C[C@@H]1COc2cc(N3CCCC[C@@H]3C)ncc2C(=O)N1C1CC2(C1)CN(S(=O)(=O)c1ccccc1F)C2 [Example 150],1 nM
8,C[C@H]1CCn2nc(C3CC3)cc2C(=O)N1C1CC2(C1)CN(S(=O)(=O)c1ccccc1F)C2 [Example 189],68 nM
9,CC[C@@H]1COc2nc(F)ccc2C(=O)N1C1CC2(C1)CN(S(=O)(=O)c1ccccc1F)C2 [Example 43],32 nM
10,"CC1CCc2nc(C3CC3)sc2C(=O)N1C1CC2(C1)CN(S(=O)(=O)c1ccccc1F)C2 (single isomer, unassigned) [Example 355]",17 nM
11,"Cc1nnc2n1CC[C@@H](C)N(C1CC3(C1)CN(S(=O)(=O)c1ccccc1F)C3)C2=O [Example 260, (7R)-8-[2-(2-fluorophenyl)sulfonyl-2-azaspiro[3.3]heptan-6-yl]-3,7-dimethyl-6,7-dihydro-5H-[1,2,4]triazolo[4,3-a][1,4]diazepin-9-one]",97 nM
12,C[C@@H]1CCn2nc(C3CC3)cc2C(=O)N1C1CC2(C1)CN(S(=O)(=O)c1ccccc1F)C2 [Example 188],8 nM
13,C[C@@H]1COc2nc(N3CC[C@H](C#N)C3)ncc2C(=O)N1C1CC2(C1)CN(S(=O)(=O)c1ccccc1F)C2 [Example 401],2 nM
14,C[C@@H]1COc2nc(C3(F)CC3)sc2C(=O)N1C1CC2(C1)CN(S(=O)(=O)c1ccccc1F)C2 [Example 181],6 nM
15,"CC1c2cc(F)cnc2C(=O)N1C1CC2(C1)CN(S(=O)(=O)c1ccccc1F)C2 (single isomer, unassigned) [Example 362]",182 nM
16,"C[C@@H]1Cn2c(cnc2C(F)(F)F)C(=O)N1C1CC2(C1)CN(S(=O)(=O)c1ccccc1F)C2 [Example 238, (6R)-7-[2-(2-fluorophenyl)sulfonyl-2-azaspiro[3.3]heptan-6-yl]-6-methyl-3-(trifluoromethyl)-5,6-dihydroimidazo[1,5-a]pyrazin-8-one]",357 nM
17,CC1Cc2nc(C(F)(F)F)ccc2C(=O)N1C1CC2(C1)CN(S(=O)(=O)c1ccccc1F)C2 (racemic) [Example 67],77 nM
18,C[C@@H]1C=Cc2nc([C@@H]3C[C@@H]3F)sc2C(=O)N1C1CC2(C1)CN(S(=O)(=O)c1ccccc1F)C2 [Example 122],15 nM
19,C[C@@H]1COc2ncc(C3CC3)cc2C(=O)N1C1CC2(C1)CN(S(=O)(=O)c1ccccc1F)C2 [Example 315],3 nM

row,Structure (SMILES),IC50
1,Cc1nc(C2CC2)c2n1C[C@@H](C)N(C1CC3(C1)CN(S(=O)(=O)c1ccccc1F)C3)C2=O [Example 329],67 nM
2,C[C@@H]1CCn2cnc(Br)c2C(=O)N1C1CC2(C1)CN(S(=O)(=O)c1ccccc1F)C2 [Example 215],26 nM
3,"C[C@@H]1CNc2cccnc2C(=O)N1C1CC2(C1)CN(S(=O)(=O)c1ccccc1F)C2 [Example 338, (3R)-4-[2-(2-fluorophenyl)sulfonyl-2-azaspiro[3.3]heptan-6-yl]-3-methyl-2,3-dihydro-1H-pyrido[3,2-e][1,4]diazepin-5-one]",4 nM
4,C[C@@H]1COc2cc(C3CC3)cnc2C(=O)N1C1CC2(C1)CN(S(=O)(=O)c1ccccc1F)C2 [Example 311],1 nM
5,O=C1c2cccnc2OC[C@@H](C2CC2)N1C1CC2(C1)CN(S(=O)(=O)c1ccccc1F)C2 [Example 60],49 nM
6,"CC1(C)Oc2cc(Cl)ncc2C(=O)N1C1CC2(C1)CN(S(=O)(=O)c1ccccc1F)C2 [Example 344, 7-chloro-3-[2-(2-fluorophenyl)sulfonyl-2-azaspiro[3.3]heptan-6-yl]-2,2-dimethyl-pyrido[3,4-e][1,3]oxazin-4-one]",75 nM
7,CC1CCc2nc(C(F)(F)F)sc2C(=O)N1C1CC2(C1)CN(S(=O)(=O)c1ccccc1F)C2 (racemic) [Example 92],12 nM
8,C[C@@H]1Cn2nc(C3CC3)cc2C(=O)N1C1CC2(C1)CN(S(=O)(=O)c1ccccc1F)C2 [Example 225],11 nM
9,CCC1COc2ncccc2C(=O)N1C1CC2(C1)CN(S(=O)(=O)c1ccccc1F)C2 (racemic) [Example 59],33 nM
10,"C[C@@H]1COc2nc(Cl)cnc2C(=O)N1C1CC2(C1)CN(S(=O)(=O)c1ccccc1F)C2 [Example 40, (7R)-3-chloro-8-[2-(2-fluorophenyl)sulfonyl-2-azaspiro[3.3]heptan-6-yl]-7-methyl-6,7-dihydropyrazino[2,3-f][1,4]oxazepin-9-one]",5 nM
11,C[C@@H]1Cn2nc(C(C)(F)F)cc2C(=O)N1C1CC2(C1)CN(S(=O)(=O)c1ccccc1F)C2 [Example 224],41 nM
12,"CC1CCc2nc(C3CC3)sc2C(=O)N1C1CC2(C1)CN(S(=O)(=O)c1ccccc1F)C2 (single isomer, unassigned) [Example 354]",2 nM
13,CCCN(C(=O)c1cccnc1OCC)C1CC2(C1)CN(S(=O)(=O)c1cccc(C)c1)C2 [Example 424],795 nM
14,CC[C@@H]1COc2ncc(F)cc2C(=O)N1C1CC2(C1)CN(S(=O)(=O)c1ccccc1F)C2 [Example 41],70 nM
15,"C[C@@H]1CNc2nc(N3CC[C@H](F)C3)ccc2C(=O)N1C1CC2(C1)CN(S(=O)(=O)c1ccccc1F)C2 [Example 162, (3R)-4-[2-(2-fluorophenyl)sulfonyl-2-azaspiro[3.3]heptan-6-yl]-8-[(3S)-3-fluoropyrrolidin-1-yl]-3-methyl-2,3-dihydro-H-pyrido[2,3-e][1,4]diazepin-5-one]",2 nM
16,Cc1ccnc2c1OCC(C)N(C1CC3(C1)CN(S(=O)(=O)c1ccccc1F)C3)C2=O (racemic) [Example 16],20 nM
17,C[C@@H]1COc2cc(N3CCCOCC3)ncc2C(=O)N1C1CC2(C1)CN(S(=O)(=O)c1ccccc1F)C2 [Example 160],1 nM
18,"CC1CCOCC(=O)N1C1CC2(C1)CN(S(=O)(=O)c1ccccc1F)C2 (centres unmarked) [Example 457, 4-[2-(2-fluorophenyl)sulfonyl-2-azaspiro[3.3]heptan-6-yl]-5-methyl-1,4-oxazepan-3-one]",171 nM
19,"CC1C=Cc2nc(C(F)(F)F)ccc2C(=O)N1C1CC2(C1)CN(S(=O)(=O)c1ccccc1F)C2 (centres unmarked) [Example 111, 6-[2-(2-fluorophenyl)sulfonyl-2-azaspiro[3.3]heptan-6-yl]-7-methyl-2-(trifluoromethyl)-7H-pyrido[3,2-c]azepin-5-one]",60 nM
